Results reported in ChEMBL document CHEMBL1201862, “PubChem BioAssay data set” (2004).
Activity calls are given as the source filed them.

Tests used:
Aminopeptidase N = molecular target: T1, Aminopeptidase N (Plasmodium falciparum FcB1/Columbia, UniProt O96935); experiment: P. falciparum M1AAP inhibitors, biochemical, fluorogenic H-Leu-NHMec substrate, 1536-well (AID 1445); design: species or system Plasmodium falciparum 3D7, 3D7
T1 sequence (O96935 whole entry): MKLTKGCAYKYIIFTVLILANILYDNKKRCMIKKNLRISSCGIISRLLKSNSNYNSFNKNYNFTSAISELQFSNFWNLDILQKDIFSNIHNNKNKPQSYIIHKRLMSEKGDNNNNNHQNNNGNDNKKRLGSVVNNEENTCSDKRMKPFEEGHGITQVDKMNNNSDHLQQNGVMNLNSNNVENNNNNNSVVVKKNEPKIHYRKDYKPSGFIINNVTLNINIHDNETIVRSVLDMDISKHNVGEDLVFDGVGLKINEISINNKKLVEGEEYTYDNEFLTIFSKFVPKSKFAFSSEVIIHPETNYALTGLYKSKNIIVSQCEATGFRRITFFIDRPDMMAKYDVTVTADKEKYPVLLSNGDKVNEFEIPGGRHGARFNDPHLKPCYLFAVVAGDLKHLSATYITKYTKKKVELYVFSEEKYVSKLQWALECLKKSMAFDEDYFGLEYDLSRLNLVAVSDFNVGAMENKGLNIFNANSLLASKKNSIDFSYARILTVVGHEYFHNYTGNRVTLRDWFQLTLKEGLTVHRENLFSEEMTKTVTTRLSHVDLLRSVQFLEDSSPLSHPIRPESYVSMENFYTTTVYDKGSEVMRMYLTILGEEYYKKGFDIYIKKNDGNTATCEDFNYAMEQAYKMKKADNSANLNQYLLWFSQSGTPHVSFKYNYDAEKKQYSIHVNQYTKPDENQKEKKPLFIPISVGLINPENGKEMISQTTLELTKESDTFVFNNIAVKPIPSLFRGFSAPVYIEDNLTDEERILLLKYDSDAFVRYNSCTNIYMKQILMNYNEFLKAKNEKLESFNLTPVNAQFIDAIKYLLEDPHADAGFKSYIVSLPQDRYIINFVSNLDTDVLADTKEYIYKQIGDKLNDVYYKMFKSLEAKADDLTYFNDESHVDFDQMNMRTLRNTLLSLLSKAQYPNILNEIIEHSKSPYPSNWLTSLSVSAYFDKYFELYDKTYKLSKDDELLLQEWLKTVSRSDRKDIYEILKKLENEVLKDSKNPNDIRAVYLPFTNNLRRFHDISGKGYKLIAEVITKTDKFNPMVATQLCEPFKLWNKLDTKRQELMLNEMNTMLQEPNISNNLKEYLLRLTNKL

HEK293 [1] = experiment: NOD2 signaling inhibitors in MDP-stimulated cells, cell-based, uHTS, luminescence (AID 2001); type: functional; conditions: Homo sapiens
HEK293 [2] = experiment: cells; type: functional, cell-based; conditions: Homo sapiens
Ion channel NompC = Ion channel NompC (Danio rerio, UniProt Q7T1G6); experiment: Fluorescence counterscreen assay for TRPML3 agonists: dose response cell-based high-throughput screening assay to identify agonists of the transient receptor potential channel N1 (TRPN1). [Related pubchem assays: 1526, 1424, 1448 ]; type: functional
Sequence of Ion channel NompC (Q7T1G6 whole entry): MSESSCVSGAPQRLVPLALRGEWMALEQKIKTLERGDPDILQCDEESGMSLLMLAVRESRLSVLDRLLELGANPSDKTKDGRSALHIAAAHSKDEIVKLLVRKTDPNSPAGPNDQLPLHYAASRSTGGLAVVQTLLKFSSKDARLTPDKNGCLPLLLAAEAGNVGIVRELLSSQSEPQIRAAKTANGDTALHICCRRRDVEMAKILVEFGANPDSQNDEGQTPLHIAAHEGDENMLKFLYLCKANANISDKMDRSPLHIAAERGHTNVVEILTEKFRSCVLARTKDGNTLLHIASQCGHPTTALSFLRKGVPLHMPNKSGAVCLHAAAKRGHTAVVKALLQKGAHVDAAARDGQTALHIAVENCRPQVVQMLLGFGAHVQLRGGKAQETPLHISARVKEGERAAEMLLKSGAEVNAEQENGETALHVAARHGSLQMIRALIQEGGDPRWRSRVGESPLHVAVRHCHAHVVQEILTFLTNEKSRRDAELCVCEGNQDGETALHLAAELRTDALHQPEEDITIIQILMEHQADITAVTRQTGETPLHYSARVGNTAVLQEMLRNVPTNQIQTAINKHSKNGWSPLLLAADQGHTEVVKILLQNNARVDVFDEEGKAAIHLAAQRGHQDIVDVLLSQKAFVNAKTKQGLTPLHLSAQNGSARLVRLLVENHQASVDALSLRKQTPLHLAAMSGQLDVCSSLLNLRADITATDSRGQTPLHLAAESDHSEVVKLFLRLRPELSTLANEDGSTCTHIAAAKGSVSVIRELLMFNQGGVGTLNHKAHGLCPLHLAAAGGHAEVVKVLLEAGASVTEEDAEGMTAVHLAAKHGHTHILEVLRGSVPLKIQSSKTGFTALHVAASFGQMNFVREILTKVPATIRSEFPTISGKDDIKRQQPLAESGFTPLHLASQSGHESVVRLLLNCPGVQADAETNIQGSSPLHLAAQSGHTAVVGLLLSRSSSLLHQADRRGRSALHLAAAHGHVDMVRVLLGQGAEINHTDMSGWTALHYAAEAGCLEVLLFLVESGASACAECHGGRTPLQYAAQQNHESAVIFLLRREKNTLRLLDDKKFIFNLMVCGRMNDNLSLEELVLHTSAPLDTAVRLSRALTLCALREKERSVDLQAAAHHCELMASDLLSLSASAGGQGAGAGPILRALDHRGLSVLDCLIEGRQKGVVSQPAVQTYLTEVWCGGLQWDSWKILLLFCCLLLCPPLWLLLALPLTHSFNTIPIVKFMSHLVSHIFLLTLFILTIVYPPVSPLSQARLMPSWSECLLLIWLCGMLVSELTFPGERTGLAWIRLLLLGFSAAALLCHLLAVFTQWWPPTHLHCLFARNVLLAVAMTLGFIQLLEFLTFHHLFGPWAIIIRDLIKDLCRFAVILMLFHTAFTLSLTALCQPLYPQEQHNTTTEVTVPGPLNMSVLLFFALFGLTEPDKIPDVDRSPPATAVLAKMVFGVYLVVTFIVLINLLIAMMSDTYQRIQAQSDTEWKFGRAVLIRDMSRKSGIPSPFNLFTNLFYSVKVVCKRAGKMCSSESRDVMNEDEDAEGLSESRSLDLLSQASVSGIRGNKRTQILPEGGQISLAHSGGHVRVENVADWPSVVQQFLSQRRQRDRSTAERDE

HEK293 [3] = experiment: cells; type: functional, cell-based; conditions: Homo sapiens; remark: listed apart in the source
Mucolipin-3 = molecular target: T2, Mucolipin-3 (Homo sapiens, UniProt Q8TDD5); experiment: Dose response cell-based high-throughput screening assay for agonists of the transient receptor potential channel ML3 (TRPML3). [Related pubchem assays: 1526, 1424, 1448 ]; type: functional
T2 sequence (Q8TDD5 whole entry): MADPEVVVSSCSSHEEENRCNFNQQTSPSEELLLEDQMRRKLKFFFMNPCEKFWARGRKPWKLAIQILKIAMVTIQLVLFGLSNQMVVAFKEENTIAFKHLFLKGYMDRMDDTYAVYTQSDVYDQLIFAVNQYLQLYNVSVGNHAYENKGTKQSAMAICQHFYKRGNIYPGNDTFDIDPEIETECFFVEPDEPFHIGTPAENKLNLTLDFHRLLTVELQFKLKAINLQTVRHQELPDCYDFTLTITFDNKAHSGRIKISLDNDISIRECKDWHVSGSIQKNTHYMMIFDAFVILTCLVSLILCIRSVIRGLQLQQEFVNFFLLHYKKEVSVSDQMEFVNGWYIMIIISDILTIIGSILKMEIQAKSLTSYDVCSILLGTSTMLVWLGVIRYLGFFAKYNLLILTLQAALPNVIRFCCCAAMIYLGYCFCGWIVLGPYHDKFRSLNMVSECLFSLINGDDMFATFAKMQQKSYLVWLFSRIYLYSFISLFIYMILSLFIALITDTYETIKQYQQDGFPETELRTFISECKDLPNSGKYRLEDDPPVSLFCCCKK

HEK293 [4] = experiment: NOD1 signaling inhibitors, primary screen, cell-based, luminescence, uHTS (AID 1578); type: functional; conditions: Homo sapiens
[5] = A cytotoxicity screen of small molecule inhibitors of the PhoP region in Salmonella typhi identified in the primary screen. [Related pubchem assays: 1850, 1864, 1985 ]; type: functional
Caspase-6 = molecular target: T3, Caspase-6 (Homo sapiens, UniProt P55212); experiment: human caspase-6 inhibitors, dose response, biochemical, VEID-R110 fluorescence, cherry-pick (AID 720632)
T3 sequence (P55212 whole entry): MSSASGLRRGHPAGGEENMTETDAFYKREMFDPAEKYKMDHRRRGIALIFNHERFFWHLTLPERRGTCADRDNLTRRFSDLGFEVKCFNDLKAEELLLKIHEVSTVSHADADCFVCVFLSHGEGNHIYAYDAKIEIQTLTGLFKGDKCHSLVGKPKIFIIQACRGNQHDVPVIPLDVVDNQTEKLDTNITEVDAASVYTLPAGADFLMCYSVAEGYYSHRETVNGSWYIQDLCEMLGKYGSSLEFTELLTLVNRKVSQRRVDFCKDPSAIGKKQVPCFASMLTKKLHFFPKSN

[6] = molecular target: T4, Carboxy-terminal domain RNA polymerase II polypeptide A small phosphatase 1 (Homo sapiens, UniProt Q9GZU7); experiment: inhibitors of CTDSP1, concentration-response testing, biochemical assay, absorbance-based, actives from ultra-high-throughput screening (AID 540297); type: functional
T4 sequence (Q9GZU7 whole entry): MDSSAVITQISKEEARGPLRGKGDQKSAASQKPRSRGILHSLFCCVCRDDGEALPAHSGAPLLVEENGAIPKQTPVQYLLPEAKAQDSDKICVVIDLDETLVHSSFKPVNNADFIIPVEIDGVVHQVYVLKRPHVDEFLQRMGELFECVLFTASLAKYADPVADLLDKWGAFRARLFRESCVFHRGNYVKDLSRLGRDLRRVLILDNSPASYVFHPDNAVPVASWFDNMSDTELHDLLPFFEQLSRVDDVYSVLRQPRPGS

[7] = P. falciparum Dd2 growth inhibitors, dose response, SYBR Green, dry powder samples (AID 1159566); type: functional, cell-based;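 further: potency for growth inhibition with lower SYBR green DNA signal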
[8] = P. falciparum Dd2 growth inhibitors, dose response, SYBR Green, cherry-picked samples (AID 1159567); type: functional, cell-based
[9] = P. falciparum ATP4 D1247Y mutant growth inhibitors, dose response, NITD609-resistant line, SYBR Green, dry powder (AID 1159571); type: functional, cell-based;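 further: parasites synchronized at ring stage by sorbitol before testing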
[10] = P. falciparum 3D7-ScDHODH growth inhibitors, dose response, SYBR Green, dry powder samples (AID 1159570); type: functional, cell-based;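 further: parasite growth measured after 72 hours of compound exposure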
[11] = HepG2 cell cytotoxicity, dose response, cytotoxicity control, plate reader, dry powder samples (AID 1159569); type: functional, cell-based;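 further: inhibitor potency with signal falling toward the positive control level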
Kallikrein-7 = Kallikrein-7 (Homo sapiens, UniProt P49862); experiment: Fluorescence Intensity-based biochemical primary high throughput dose response assay to identify activators of kallikrein-7 (K7) zymogen.
Sequence of Kallikrein-7 (P49862 whole entry): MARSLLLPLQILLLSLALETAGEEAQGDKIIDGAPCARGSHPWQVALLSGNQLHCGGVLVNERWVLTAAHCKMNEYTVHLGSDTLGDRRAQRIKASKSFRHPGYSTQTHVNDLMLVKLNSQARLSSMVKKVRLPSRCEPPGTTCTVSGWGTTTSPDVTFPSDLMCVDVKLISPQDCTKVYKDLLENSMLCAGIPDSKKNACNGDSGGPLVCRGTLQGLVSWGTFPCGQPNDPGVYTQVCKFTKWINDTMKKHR

[12] = intracellular Trypanosoma cruzi inhibitors in host cells – cell-based, plate reader, cherry-pick samples, set 3, dose response (AID 651818); type: functional;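 further: compounds incubated with infected cells for about four days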

For `CC1CCCCC1NC(=O)CSc1nnc(-c2ccccc2)n1N` (stereo not given), which IC50 (Aminopeptidase N) is on record?
Its IC50 is 46.8 µM (active).

Which results are given for `CCOc1ccc(NC(=O)c2ccccc2NS(=O)(=O)c2ccc(F)cc2)c([N+](=O)[O-])c1`?
IC50 (HEK293 [1]): 11.8 µM (inactive); IC50 (HEK293 [2]): > 20 µM (inactive); EC50 (Ion channel NompC): > 29.9 µM (not active); IC50 (HEK293 [3]): 19 µM (active); EC50 (Mucolipin-3): 5.29 µM (active); EC50 (HEK293 [4]): 4.21 µM (active)

With `CN(C)/C=N/c1ncc(C(=O)c2ccc(Cl)cc2)s1` as the compound, how does the EC50 [5] read?
The EC50 was > 50 µM (active).

With `C[N+]12CN3CN(CN(C3)C1)C2` as the compound, how does the EC50 [5] read?
Its EC50 is > 50 µM (active).

For `Cc1cc(C)cc(NC(=O)Cc2ccc(S(=O)(=O)N3CCCC3)s2)c1`, which AC50 (Caspase-6) is on record?
Its AC50 is 24.2 µM (active).

For `Nc1cc([N+](=O)[O-])ccc1N1C(=O)CCCC1=O`, which AC50 (Caspase-6) is on record?
Its AC50 is 18.3 µM (active).

And the IC50 [6]?
The IC50 was 10.8 µM (active).

With `C[C@H](CO)N1C[C@H](C)[C@@H](CN(C)Cc2cccc(C(=O)Nc3ccccc3N)c2)OCc2ccccc2-c2c(n(C)c3ccccc23)C1=O` as the compound, how does the AC50 [7] read?
Its AC50 is 1.12 µM (active).

And the AC50 [8]?
The AC50 was 1.21 µM (active).

And the AC50 [9]?
Its AC50 is 0.949 µM (active).

And the AC50 [10]?
Its AC50 is 0.944 µM (active).

What about the AC50 [11] of the same compound?
The AC50 was 72.9 µM (active).

With `CC(=O)Nc1ccc(C2Nc3ccccc3C(=O)N2C2CCCCC2)cc1` (stereo not given) as the compound, how does the EC50 (Kallikrein-7) read?
Its EC50 is > 69.5 µM (inactive).

With `COc1ccc(C2=NN3C(C2)c2ccccc2OC3c2cccs2)cc1` (stereo not given) as the compound, how does the EC50 [5] read?
Its EC50 is > 50 µM (active).

For `C[C@@H]1CN([C@H](C)CO)C(=O)c2cccc(NC(=O)CCCCCC(=O)Nc3ccccc3N)c2O[C@@H]1CN(C)S(=O)(=O)c1ccccc1`, which AC50 [7] is on record?
The AC50 was 0.573 µM (active).

And the AC50 [12]?
Its AC50 is 3.26 µM (active).

And the AC50 [8]?
The AC50 was 0.989 µM (active).

What about the AC50 [9] of the same compound?
Its AC50 is 0.549 µM (active).

What about the AC50 [10] of the same compound?
The AC50 was 0.507 µM (active).

What about the AC50 [11] of the same compound?
The AC50 was 70.7 µM (active).
